The target in one assay is T1, 5-LOX (Homo sapiens, UniProt P09917).
T1 sequence (P09917 1-674): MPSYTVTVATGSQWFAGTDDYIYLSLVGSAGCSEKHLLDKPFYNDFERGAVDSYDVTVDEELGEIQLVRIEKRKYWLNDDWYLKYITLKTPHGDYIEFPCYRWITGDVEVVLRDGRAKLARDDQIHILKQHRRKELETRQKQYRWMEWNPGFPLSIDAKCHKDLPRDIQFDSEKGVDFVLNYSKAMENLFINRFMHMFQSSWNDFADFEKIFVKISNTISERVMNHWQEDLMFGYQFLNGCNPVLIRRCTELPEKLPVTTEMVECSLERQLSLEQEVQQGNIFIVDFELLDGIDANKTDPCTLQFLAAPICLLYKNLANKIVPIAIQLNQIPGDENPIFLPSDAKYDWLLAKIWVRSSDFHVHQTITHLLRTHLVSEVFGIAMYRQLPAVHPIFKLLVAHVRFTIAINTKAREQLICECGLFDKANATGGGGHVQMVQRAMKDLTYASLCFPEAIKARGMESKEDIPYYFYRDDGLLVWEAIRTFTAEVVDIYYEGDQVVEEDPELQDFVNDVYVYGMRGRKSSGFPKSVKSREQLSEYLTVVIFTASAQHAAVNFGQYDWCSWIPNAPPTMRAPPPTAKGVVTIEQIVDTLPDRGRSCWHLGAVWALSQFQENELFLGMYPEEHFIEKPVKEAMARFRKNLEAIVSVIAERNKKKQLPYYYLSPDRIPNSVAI
In words: 5-LOX fluorescent assay (in vitro lipoxygenase inhibition). It counts as biochemical. The settings on record: recombinant 5-LOX cell lysate, 20 μM AA, DHR123 fluorescence; several values in a cell = repeat determinations; read-out: IC50 (μM) values for in vitro lipoxygenase inhibition, 5-LOX. Put shortly: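 Recombinant human 5-LOX cell lysate pre-incubated 15 min with inhibitor in 50 mM Tris pH 7.5, 0.1 mM EDTA, 0.3 mM CaCl2. Reaction started with 20 μM arachidonic acid plus 100 μM ATP, with 1 μM DHR123 as fluorescent probe. IC50 from percent inhibition per dose via 4-parameter logistic or sigmoidal dose-response fit.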

Another assay deals with T2, 12-LOX (Homo sapiens, UniProt P18054).
T2 sequence (P18054 1-663): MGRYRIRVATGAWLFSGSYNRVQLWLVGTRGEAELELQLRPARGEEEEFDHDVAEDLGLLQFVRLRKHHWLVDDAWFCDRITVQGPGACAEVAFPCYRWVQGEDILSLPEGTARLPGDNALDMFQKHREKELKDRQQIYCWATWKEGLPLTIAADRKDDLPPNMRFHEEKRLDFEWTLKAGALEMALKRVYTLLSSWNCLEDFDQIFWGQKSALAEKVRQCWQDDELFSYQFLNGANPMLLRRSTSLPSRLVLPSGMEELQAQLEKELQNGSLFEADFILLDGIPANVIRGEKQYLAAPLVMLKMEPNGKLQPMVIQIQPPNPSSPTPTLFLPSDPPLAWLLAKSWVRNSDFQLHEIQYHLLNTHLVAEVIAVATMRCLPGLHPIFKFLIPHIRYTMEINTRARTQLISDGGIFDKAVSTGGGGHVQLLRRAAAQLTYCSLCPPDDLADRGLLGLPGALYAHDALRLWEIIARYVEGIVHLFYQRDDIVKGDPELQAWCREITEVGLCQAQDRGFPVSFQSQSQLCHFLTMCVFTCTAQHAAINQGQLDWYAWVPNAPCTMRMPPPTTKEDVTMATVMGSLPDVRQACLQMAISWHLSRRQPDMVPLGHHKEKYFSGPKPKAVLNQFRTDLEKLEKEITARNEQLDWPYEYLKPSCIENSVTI
Description: 12-LOX fluorescent assay (in vitro lipoxygenase inhibition). It counts as biochemical. The conditions noted are these: 100 nM recombinant 12-LOX, 20 μM AA, DHR123 fluorescence; several values in a cell = repeat determinations; read-out: IC50 (μM) values for in vitro lipoxygenase inhibition, 12-LOX. In a few lines: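 Fluorescent assay in 50 mM Tris pH 7.5, 0.05% Tween-20, with 100 nM recombinant 12-LOX preincubated 15 min with inhibitor. Reaction was started with 20 μM arachidonic acid substrate and 1 μM DHR123. Percent inhibition per dose was fitted by 4-parameter logistic or sigmoidal dose-response for IC50.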

Where “and” joins values, the source holds several entries; their conditions need not be identical. Equal values may be shown once.

The source of these data is patent US20230117592A1 (SRI International, priority 2019, published 2023).

What is called IC50 is the concentration at which inhibition is half-maximal.

Consider `FC(F)(F)c1cc(NC2(c3ccccc3)COC2)ccc1NCCN1CCOCC1` [SS20308-0317-01, N^1-(2-morpholinoethyl)-N^4-(3-phenyloxetan-3-yl)-2-(trifluoromethyl)benzene-1,4-diamine], for which the figures for the IC50 at 5-LOX and at 12-LOX were 0.57 µM and 0.32 µM, respectively.
Take `Fc1ccc(Nc2ccc(NCC3(Cn4cncn4)COC3)c(OC(F)(F)F)c2)cc1` [SS20308-0319-01, N^1-((3-((1H-1,2,4-triazol-1-yl)methyl)oxetan-3-yl)methyl)-N^4-(4-fluorophenyl)-2-(trifluoromethoxy)benzene-1,4-diamine]: the IC50 came out at 0.15 µM at 5-LOX and 0.05 µM at 12-LOX.
The like results for `Fc1ccc(Nc2ccc(NCC3(CN4CCCC4)COC3)c(C(F)(F)F)c2)cc1` [SS20308-0320-01, N^4-(4-fluorophenyl)-N^1-((3-(pyrrolidin-1-ylmethyl)oxetan-3-yl)methyl)-2-(trifluoromethyl)benzene-1,4-diamine] were, in that order, 0.06 µM and 0.08 µM.
The like results for `FC(F)(F)c1cc(Nc2ccc(Cl)cc2)ccc1NCC1(Cn2cncn2)COC1` [SS20308-0322-01, N^1-((3-((1H-1,2,4-triazol-1-yl)methyl)oxetan-3-yl)methyl)-N^4-(4-chlorophenyl)-2-(trifluoromethyl)benzene-1,4-diamine] were, in that order, 0.05 µM and 0.05 µM.
The like results for `Cc1cc(Nc2ccc(Cl)c(F)c2)ccc1NCC1(CN2CCOCC2)COC1` [SS20308-0323-01, N^4-(4-chloro-3-fluorophenyl)-2-methyl-N^1-((3-(morpholinomethyl)oxetan-3-yl)methyl) benzene-1,4-diamine] were, in that order, 0.05 µM and 0.02 µM.
As to `Cc1cc(Nc2ccc(Cl)c(F)c2)ccc1NCC1(CN2CCCC2)COC1` [SS20308-0324-01, N^4-(4-chloro-3-fluorophenyl)-2-methyl-N^1-((3-(pyrrolidin-1-ylmethyl)oxetan-3-yl)methyl)benzene-1,4-diamine], the IC50 at 5-LOX is 0.15 µM and 0.44 µM; at 12-LOX, 0.03 µM.
Turning to `FC(F)(F)C(Nc1ccc(NCCCN2CCOCC2)c(C2CCCCC2)c1)c1ccccc1` (stereo not drawn) [SS20308-0325-01, 2-cyclohexyl-N^1-(3-morpholinopropyl)-N^4-(2,2,2-trifluoro-1-phenylethyl)benzene-1,4-diamine], the IC50 on 5-LOX amounted to 0.04 µM; at 12-LOX it was 0.03 µM.
The like results for `Cc1cc(Nc2ccc(Cl)c(F)c2)ccc1NCC1(Cn2cccn2)COC1` [SS20308-0327-01, N1-((3-((1H-pyrazol-1-yl)methyl)oxetan-3-yl)methyl)-N4-(4-chloro-3-fluorophenyl)-2-methylbenzene-1,4-diamine] were, in that order, 0.07 µM and 0.04 µM.
The like results for `Cc1cc(Nc2ccc(Cl)c(F)c2)ccc1NCC1(Cn2ccnc2)COC1` [SS20308-0328-01, N^1-((3-((1H-imidazol-1-yl)methyl)oxetan-3-yl)methyl)-N^4-(4-chloro-3-fluorophenyl)-2-methylbenzene-1,4-diamine] were, in that order, 0.04 µM and 0.03 µM.
